Measurements published in patent publication US11649238B2, “Substituted pyrazolo[1,5-a]pyrimidines as PI4K inhibitors” (GLAXOSMITHKLINE INTELLECTUAL PROPERTY DEVELOPMENT LIMITED, priority 2018, dated 2023).

Target: T1, human PI4KIII-beta 13-828 (D316-330) (Homo sapiens, UniProt Q9UBF8)
T1 construct: human PI4KIII-beta 13-828 (D316-330)
Assay: PI4 KB Activity Assay (ADP-GLO Kinase assay)
Format: biochemical
Settings: 1 mM ATP, 60 μM phosphatidylinositol, 3 hours at room temperature; read-out: mean pIC50 (converted)
Procedure: The in vitro inhibition of human PI4KIII-beta 13-828 (D316-330) activity was determined by using the ADP-GLO Kinase assay kit from Promega. Inhibitors were dissolved in 100% DMSO at a concentration of 1 mM. Dilutions were prepared in 100% DMSO using a 1 in 3 serial step dilution. A 60 nL stamp from an 11-point titration was transferred to a white low volume 384 well Greiner assay plate ensuring a final DMSO concentration of 1% across the plate and a top final concentration of inhibitor of 10 μM. The PI4KIII-beta assay contained 25 mM Hepes pH 7.5 (NaOH), 10 mM MgCl2, 0.5 mM EGTA, 0.1% Triton X-100, 2 mM TCEP, and 0.1 mg/ml BSA, 1 mM ATP, 60 μM phosphatidylinositol, and 1.5 nM human PI4K-beta 13-828 (D316-330) in a total volume of 6 μL. The assay was initiated with the addition of enzyme, covered, and incubated at room temperature for 3 hours. The assays were stopped with the addition of 6 μl ADP-GLO Reagent containing 0.1% CHAPS to deplete the unconsumed ATP. The plates were incubated at room temperature for 60 min and then 12 μl of the Kinase Detection Reagent containing 0.1% CHAPS was added to convert ADP to ATP and introduce luciferase and luciferin. After 40 min incubation at room temperature the luminescent signal was read on a BMG Labtech PHERAstar FS with the following settings; Gain 3600, Focal height 13.7 mm, measurement interval time 1 s, Settling time 0.2 s. The inhibitory effect of the PI4K-beta activity of the compounds was evaluated by the IC50 of the response relative to the high, no compound, and low, no enzyme, controls by fitting to the four parameter dose response question.

T1 sequence (Q9UBF8 1-801 isoform Q9UBF8-2): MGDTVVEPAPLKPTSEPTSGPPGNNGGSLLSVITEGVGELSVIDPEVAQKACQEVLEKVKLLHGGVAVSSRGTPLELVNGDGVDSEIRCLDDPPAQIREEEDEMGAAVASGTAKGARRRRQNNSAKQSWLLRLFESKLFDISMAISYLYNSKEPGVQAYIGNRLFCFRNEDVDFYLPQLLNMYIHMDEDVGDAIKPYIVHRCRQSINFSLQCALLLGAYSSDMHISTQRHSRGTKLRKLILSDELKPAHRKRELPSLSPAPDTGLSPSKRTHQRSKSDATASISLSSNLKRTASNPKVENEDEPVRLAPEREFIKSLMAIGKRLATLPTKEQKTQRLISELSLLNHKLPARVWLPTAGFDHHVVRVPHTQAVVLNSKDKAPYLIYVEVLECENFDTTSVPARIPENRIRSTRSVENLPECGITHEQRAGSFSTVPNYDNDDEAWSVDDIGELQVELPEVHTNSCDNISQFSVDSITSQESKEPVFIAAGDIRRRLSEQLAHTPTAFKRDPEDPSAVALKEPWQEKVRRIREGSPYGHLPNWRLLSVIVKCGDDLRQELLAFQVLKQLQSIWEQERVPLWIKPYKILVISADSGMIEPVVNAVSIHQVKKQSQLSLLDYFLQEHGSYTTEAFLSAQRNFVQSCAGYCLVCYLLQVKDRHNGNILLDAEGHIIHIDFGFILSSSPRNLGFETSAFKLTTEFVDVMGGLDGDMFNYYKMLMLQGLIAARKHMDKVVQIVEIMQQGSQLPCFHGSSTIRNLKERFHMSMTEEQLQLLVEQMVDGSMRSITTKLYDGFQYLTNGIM

Row | IC50 [nM] | Structure (SMILES)
1 | ≤ 3.98 | Cc1nn2c(NCc3cccc(-c4nccn4C)c3)cc(C(C)O)nc2c1-c1ccc(Cl)c(C(=O)N(C)CCCO)c1 (single isomer, unassigned) [Compound 57, 2-Chloro-5-(5-(1-hydroxyethyl)-2-methyl-7-((3-(1-methyl-1H-imidazol-2-yl)benzyl)amino)pyrazolo[1,5-a]pyrimidin-3-yl)-N-(3-hydroxypropyl)-N-methylbenzamide]
2 | ≤ 3.98 | Cc1ccc(-c2c(C)nn3c(NCc4cccc(-c5nccn5C)c4)cc(C(C)(C)O)nc23)cc1C(=O)N(C)CC(C)O (single isomer, unassigned) [Compound 62, 5-(5-(2-Hydroxypropan-2-yl)-2-methyl-7-((3-(1-methyl-1H-imidazol-2-yl)benzyl)amino)pyrazolo[1,5-a]pyrimidin-3-yl)-N-(2-hydroxypropyl)-N,2-dimethylbenzamide]
3 | ≤ 3.98 | CCC(CO)c1cc(NCc2cccc(-c3nccn3C)c2)n2nc(C)c(-c3ccc(C)c(C(=O)N(C)CCCO)c3)c2n1 (single isomer, unassigned) [Compound 66, 5-(5-(1-Hydroxybutan-2-yl)-2-methyl-7-((3-(1-methyl-1H-imidazol-2-yl)benzyl)amino)pyrazolo[1,5-a]pyrimidin-3-yl)-N-(3-hydroxypropyl)-N,2-dimethylbenzamide]
4 | ≤ 3.98 | CCC(O)c1cc(NCc2cccc(-c3nccn3C)c2)n2nc(C)c(-c3ccc(C)c(C(=O)N(C)CCCO)c3)c2n1 (single isomer, unassigned) [Compound 69, N-(3-Hydroxypropyl)-5-(5-(1-hydroxypropyl)-2-methyl-7-((3-(1-methyl-1H-imidazol-2-yl)benzyl)amino)pyrazolo[1,5-a]pyrimidin-3-yl)-N,2-dimethylbenzamide]
5 | ≤ 3.98 | CCC(O)c1cc(NCc2cccc(-c3nccn3C)c2)n2nc(C)c(-c3ccc(OC)c(S(=O)(=O)CCO)c3)c2n1 (single isomer, unassigned) [Compound 75, 1-(3-(3-((2-Hydroxyethyl)sulfonyl)-4-methoxyphenyl)-2-methyl-7-((3-(1-methyl-1H-imidazol-2-yl)benzyl)amino)pyrazolo[1,5-a]pyrimidin-5-yl)propan-1-ol]
6 | ≤ 3.98 | CCC(O)c1cc(NCc2cccc(-c3nccn3C)c2)n2nc(C)c(-c3ccc(C)c(C(=O)N(C)[C@@H](C)CO)c3)c2n1 (single isomer, unassigned) [Compound 80]
7 | ≤ 3.98 | COc1ccc(-c2c(C)nn3c(NCc4cccc(-c5nccn5C)c4)cc(C(C)(C)O)nc23)cc1C(=O)N(C)CC(C)O (single isomer, unassigned) [Compound 83, 5-(5-(2-Hydroxypropan-2-yl)-2-methyl-7-((3-(1-methyl-1H-imidazol-2-yl)benzyl)amino)pyrazolo[1,5-a]pyrimidin-3-yl)-N-(2-hydroxypropyl)-2-methoxy-N-methylbenzamide]
8 | ≤ 3.98 | COc1ccc(-c2c(C)nn3c(NCc4cccc(-c5nccn5C)c4)cc(C(C)O)nc23)cc1S(C)(=O)=O (stereo not drawn) [Compound 1, 1-(3-(4-Methoxy-3-(methylsulfonyl)phenyl)-2-methyl-7-((3-(1-methyl-1H-imidazol-2-yl)benzyl)amino)pyrazolo[1,5-a]pyrimidin-5-yl)ethanol]
9 | ≤ 3.98 | CCC(O)c1cc(NCc2cccc(-c3nccn3C)c2)n2nc(C)c(-c3ccc(OC)c(S(=O)(=O)CCO)c3)c2n1 (stereo not drawn) [Compound 3]
10 | ≤ 3.98 | COc1ccc(-c2c(C)nn3c(NCc4cccc(-c5nccn5C)c4)cc(C(O)C(C)C)nc23)cc1S(=O)(=O)CCO (stereo not drawn) [Compound 5]
11 | ≤ 3.98 | COc1ccc(-c2c(C)nn3c(NCc4cccc(-c5nccn5C)c4)cc(C(C)(C)O)nc23)cc1S(=O)(=O)CCO [Compound 6, 2-(3-(3-((2-Hydroxyethyl)sulfonyl)-4-methoxyphenyl)-2-methyl-7-((3-(1-methyl-1H-imidazol-2-yl)benzyl)amino)pyrazolo[1,5-a]pyrimidin-5-yl)propan-2-ol]
12 | ≤ 3.98 | Cc1nn2c(NCc3cccc(-c4nccn4C)c3)cc(C(C)(C)O)nc2c1-c1ccc(Cl)c(C(=O)N(C)CCCO)c1 [Compound 7, 2-Chloro-5-(5-(2-hydroxypropan-2-yl)-2-methyl-7-((3-(1-methyl-1H-imidazol-2-yl)benzyl)amino)pyrazolo[1,5-a]pyrimidin-3-yl)-N-(3-hydroxypropyl)-N-methylbenzamide]
13 | ≤ 3.98 | COc1ccc(-c2c(C)nn3c(NCc4cccc(-c5nccn5C)c4)cc(C(C)O)nc23)cc1C(=O)N(C)CCCO (stereo not drawn) [Compound 9, 5-(5-(1-Hydroxyethyl)-2-methyl-7-((3-(1-methyl-1H-imidazol-2-yl)benzyl)amino)pyrazolo[1,5-a]pyrimidin-3-yl)-N-(3-hydroxypropyl)-2-methoxy-N-methylbenzamide]
14 | ≤ 3.98 | Cc1nn2c(NCc3cccc(-c4nccn4C)c3)cc(C(C)O)nc2c1-c1ccc(Cl)c(C(=O)N(C)CCCO)c1 (stereo not drawn) [Compound 10]
15 | ≤ 3.98 | CCN(CCO)C(=O)c1cc(-c2c(C)nn3c(NCc4cccc(-c5nccn5C)c4)cc(C(C)O)nc23)ccc1OC (stereo not drawn) [Compound 11]
16 | ≤ 3.98 | Cc1nn2c(NCc3cccc(-c4nccn4C)c3)cc(C(C)O)nc2c1-c1ccc(Cl)c(C(=O)N2CC[C@H](O)C2)c1 (stereo partly drawn) [Compound 14]
17 | ≤ 3.98 | CCN(CCO)C(=O)c1cc(-c2c(C)nn3c(NCc4cccc(-c5nccn5C)c4)cc(C(C)O)nc23)ccc1Cl (stereo not drawn) [Compound 15, 2-chloro-N-ethyl-N-(2-hydroxyethyl)-5-(5-(1-hydroxyethyl)-2-methyl-7-((3-(1-methyl-1H-imidazol-2-yl)benzyl)amino)pyrazolo[1,5-a]pyrimidin-3-yl)benzamide]
18 | ≤ 3.98 | Cc1nn2c(NCc3cccc(-c4nccn4C)c3)cc(C(C)(C)O)nc2c1-c1ccc(Cl)c(C(=O)N2CC[C@H](O)C2)c1 [Compound 18]
19 | ≤ 3.98 | COc1ccc(-c2c(C)nn3c(NCc4cccc(-c5nccn5C)c4)cc(C(C)(C)O)nc23)cc1C(=O)N(C)[C@@H](C)CO [Compound 20, (S)—N-(1-hydroxypropan-2-yl)-5-(5-(2-hydroxypropan-2-yl)-2-methyl-7-((3-(1-methyl-1H-imidazol-2-yl)benzyl)amino)pyrazolo[1,5-a]pyrimidin-3-yl)-2-methoxy-N-methylbenzamide]
20 | ≤ 3.98 | Cc1nn2c(NCc3cccc(-c4nccn4C)c3)cc(C(C)(C)O)nc2c1-c1ccc(Cl)c(C(=O)N2CCC[C@@H]2CO)c1 [Compound 24]
21 | ≤ 3.98 | Cc1ccc(-c2c(C)nn3c(NCc4cccc(-c5nccn5C)c4)cc(C(C)(C)O)nc23)cc1C(=O)N1CCC[C@@H]1CO [Compound 25, (R)-(2-(hydroxymethyl)pyrrolidin-1-yl)(5-(5-(2-hydroxypropan-2-yl)-2-methyl-7-((3-(1-methyl-1H-imidazol-2-yl)benzyl)amino)pyrazolo[1,5-a]pyrimidin-3-yl)-2-methylphenyl)methanone]
22 | ≤ 3.98 | Cc1ccc(-c2c(C)nn3c(NCc4cccc(-c5nccn5C)c4)cc(C(C)(C)O)nc23)cc1C(=O)N1CC[C@H](O)C1 [Compound 29, (S)-(5-(5-(2-hydroxypropan-2-yl)-2-methyl-7-((3-(1-methyl-1H-imidazol-2-yl)benzyl)amino)pyrazolo[1,5-a]pyrimidin-3-yl)-2-methylphenyl)(3-hydroxypyrrolidin-1-yl)methanone]
23 | ≤ 3.98 | Cc1ccc(-c2c(C)nn3c(NCc4cccc(-c5nccn5C)c4)cc(C(C)(C)O)nc23)cc1C(=O)N1CCC(C)(O)C1 (stereo not drawn) [Compound 31]
24 | ≤ 3.98 | COc1ccc(-c2c(C)nn3c(NCc4cccc(-n5cccn5)c4)cc(C(C)(C)O)nc23)cc1C(=O)N(C)CCCO [Compound 33]
25 | ≤ 3.98 | Cc1ccc(-c2c(C)nn3c(NCc4cccc(-n5cccn5)c4)cc(C(C)(C)O)nc23)cc1C(=O)N(C)CCCO [Compound 34]
26 | ≤ 3.98 | Cc1ccc(-c2c(C)nn3c(NCc4cccc(-n5cccn5)c4)cc(C(C)(C)O)nc23)cc1C(=O)N1CCC[C@@H]1CO [Compound 35]
27 | ≤ 3.98 | COc1ccc(-c2c(C)nn3c(NCc4cccc(-c5nccn5C)c4)cc(C(C)(C)O)nc23)cc1C(=O)N1CCC[C@@H]1CO [Compound 36, (R)-(2-(hydroxymethyl)pyrrolidin-1-yl)(5-(5-(2-hydroxypropan-2-yl)-2-methyl-7-((3-(1-methyl-1H-imidazol-2-yl)benzyl)amino)pyrazolo[1,5-a]pyrimidin-3-yl)-2-methoxyphenyl)methanone]
28 | ≤ 3.98 | Cc1nn2c(NCc3cccc(-c4nccn4C)c3)cc(C(C)(C)O)nc2c1-c1ccc(Cl)c(C(=O)N(C)CCO)c1 [Compound 37, 2-Chloro-N-(2-hydroxyethyl)-5-(5-(2-hydroxypropan-2-yl)-2-methyl-7-((3-(1-methyl-1H-imidazol-2-yl)benzyl)amino)pyrazolo[1,5-a]pyrimidin-3-yl)-N-methylbenzamide]
29 | ≤ 3.98 | Cc1ccc(-c2c(C)nn3c(NCc4cccc(-c5nccn5C)c4)cc(C(C)(C)O)nc23)cc1C(=O)N(C)[C@H](C)CO [Compound 39]
30 | ≤ 3.98 | Cc1ccc(-c2c(C)nn3c(NCc4cccc(-c5nccn5C)c4)cc(C(C)(C)O)nc23)cc1C(=O)N(C)C(C)CO (stereo not drawn) [Compound 40]
